This is an account of results in patent US11707065B2, “Method for biofilm dispersal” (MC (US) 3 LLC, priority 2017, dated 2023).

For assay [1], the system named is Desulfovibrio desulfuricans (DSM 12129) biofilm. Description: Biofilm dispersal assay, crystal violet staining of remaining biofilm in 96-well plates. In kind it is cell-based. The following applies: D. desulfuricans, 2 h treatment, 24 h biofilm, negative control 0.88. Here is the method: (§1) Cultures of Desulfovibrio vulgaris (ATCC 29579) and Desulfovibrio desulfuricans (DSM 12129) were prepared in Modified Baar's medium at 30 C under anaerobic conditions. The bacterial cultures were then used to prepare bacterial suspensions in fresh Modified Baar's medium to a cell density of 0.1 (Table 2 to 6) or 0.05 (Table 1) at 600 nm. The appropriate bacterial suspension was used to fill 96-well plates and the plates were incubated in an anaerobic glove box for 24 h (Table 2 to 6) or 48 h (Table 1) at 30° C. to develop biofilms. Stocks of D-mannose (2.85 M, Alfa Aesar, Cat #A10842), 2DG (1.22 M, Alfa Aesar, Cat #AAAL07338-06), αMM (1.22 M, Acros Organics, Cat #AC229251000), and αMG (1.22 M, Alfa Aesar, Cat #AAA12484-22) were prepared in sterile distilled water and filtered through a 0.22 μm filter. For biofilm dispersal assay, the planktonic cells were removed, and the plates were washed with 150 μL of 1× of phosphate buffered saline (pH 7.4); D-mannose, 2DG, αMM, and αMG were added, the volume was adjusted with 1×PBS, pH 7.4 to 150 μL, and the plates were incubated in the anaerobic glove box for 2 h (Table 1, 2, 4, 5, 6) or 14 h (Table 3) for biofilm dispersal studies. After the treatment, supernatants were discarded; the wells were washed three times with deionized water (DW) by dipping the plates into a 1 L solution of DW, and the plates were dried via a piece of paper towel by patting. 300 μL of 0.1% crystal violet was added to each well, the plates were incubated for 20 minutes at room temperature (25° C.), and the staining solution was discarded. The plates were washed three times with DW by dipping the plates into a 1 L solution of DW, then 300 μL of 95% ethanol was added to each well, and the plates were soaked for 5 min to dissolve the crystal violet. Total biofilm was measured spectrophotometrically at 540 nm using a Sunrise microplate reader (Tecan, Austria Gesellschaft, Salzburg, Austria).

Assay [2] deals with Desulfovibrio vulgaris (ATCC 29579) biofilm. Described as above. The assay is classed as cell-based. The following applies: D. vulgaris. The procedure:
as §1

[3] abbreviates: 30 mM, 2 h treatment, 24 h biofilm (cell density 0.1), negative control per table.
Where [4] appears, read: 100 mM, 2 h treatment, 24 h biofilm (cell density 0.1), negative control per table.
Setting [5] is: 500 mM, 2 h treatment, 24 h biofilm (cell density 0.1), negative control per table.

As for `O=CC[C@@H](O)[C@H](O)[C@H](O)CO` [2DG, 2-deoxy-D-glucose], the results for the “Remaining biofilm OD540 (average)” value in assay [1] (30 mM), in assay [1] (100 mM) and in assay [1] (500 mM) were 0.59, 0.49 and 0.41, respectively. The “Remaining biofilm OD540” value in assay [2] (1 mM, 14 h treatment, 24 h biofilm, negative control 0.26) was 0.24; in assay [2] (5 mM, 14 h treatment, 24 h biofilm, negative control 0.26) it was 0.21; in assay [2] (10 mM, 14 h treatment, 24 h biofilm, negative control 0.26), 0.16; in assay [2] (setting [3]), 0.24; in assay [2] (setting [4]) it was 0.17; in assay [2] (setting [5]) it was 0.18.

With `CO[C@H]1O[C@H](CO)[C@@H](O)[C@H](O)[C@H]1O` [αMG, methyl α-D-glucopyranoside], the entries for the “Remaining biofilm OD540 (average)” value in assay [1] (30 mM), in assay [1] (100 mM) and in assay [1] (500 mM) were 0.75, 0.62 and 0.55, respectively. In addition, the entries for the “Remaining biofilm OD540” value in assay [2] (setting [3]), in assay [2] (setting [4]) and in assay [2] (setting [5]) were 0.39, 0.33 and 0.45, respectively.

On to `CO[C@H]1O[C@H](CO)[C@@H](O)[C@H](O)[C@@H]1O` [αMM, methyl α-D-mannopyranoside], for which the “Remaining biofilm OD540 (average)” value came to 0.60 in assay [1] (30 mM), 0.53 in assay [1] (100 mM) and 0.50 in assay [1] (500 mM). Moreover, the “Remaining biofilm OD540” value is 0.42 in assay [2] (setting [3]), 0.40 in assay [2] (setting [4]) and 0.23 in assay [2] (setting [5]).
